Data: patent publication US6504058B1 (priority 1997, dated 2003)

Legend:
[1] = tested on: Erysiphe graminis f. sp. tritici; assay: Test A: wheat powdery mildew, preventive spray on wheat seedlings, disease rating; type: in vivo, Erysiphe graminis f. sp. tritici (on wheat seedlings); details: 200 ppm test suspension sprayed to run-off (equivalent to 500 g/ha) on wheat seedlings; 100 = 100% disease control, 0 = no control; # = significant activity
Text: (§1) Test compounds were first dissolved in acetone in an amount equal to 3% of the final volume and then suspended at a concentration of 200 ppm in purified water containing 250 ppm of the surfactant Trem® 014 (polyhydric alcohol esters). The resulting test suspensions were then used in the following test. Spraying these 200 ppm test suspensions to the point of run-off on the test plants is the equivalent of a rate of 500 g/ha.
The test suspension was sprayed to the point of run-off on wheat seedlings. The following day the seedlings were inoculated with a spore dust of Erysiphe graminis f. sp. tritici, (the causal agent of wheat powdery mildew) and incubated in a growth chamber at 20° C. for 7 days, after which disease ratings were made.
(§2) Results for Tests A-E are given in Table A. In the table, a rating of 100 indicates 100% disease control and a rating of 0 indicates no disease control (relative to the controls). A dash (-) indicates no test results. ND indicates disease control not determined due to phytotoxicity. # indicates significant activity.

Puccinia recondita = assay: Test B: wheat leaf rust, preventive spray on wheat seedlings, disease rating; type: in vivo, Puccinia recondita (on wheat seedlings); details: 200 ppm test suspension sprayed to run-off (equivalent to 500 g/ha) on wheat seedlings; 100 = 100% disease control, 0 = no control; # = significant activity
Text: as §1
(§3) The test suspension was sprayed to the point of run-off on wheat seedlings. The following day the seedlings were inoculated with a spore suspension of Puccinia recondita (the causal agent of wheat leaf rust) and incubated in a saturated atmosphere at 20° C. for 24 h, and then moved to a growth chamber at 20° C. for 6 days, after which disease ratings were made.
as §2

Pyricularia oryzae = type: in vivo, Pyricularia oryzae (on rice seedlings); details: 200 ppm test suspension sprayed to run-off (equivalent to 500 g/ha) on rice seedlings; 100 = 100% disease control, 0 = no control; # = significant activity
Phytophthora infestans = type: in vivo, Phytophthora infestans (on tomato seedlings); details: 200 ppm test suspension sprayed to run-off (equivalent to 500 g/ha) on tomato seedlings; 100 = 100% disease control, 0 = no control; # = significant activity
Botrytis cinerea = assay: Test E: gray mold, preventive spray on cucumber seedlings, disease rating; type: in vivo, Botrytis cinerea (on cucumber seedlings); details: 200 ppm test suspension sprayed to run-off (equivalent to 500 g/ha) on cucumber seedlings; 100 = 100% disease control, 0 = no control; # = significant activity
Text: as §1
as §3, with “cucumber” for “wheat”, “Botrytis cinerea” for “Puccinia recondita”, “gray mold on many crops)” for “wheat leaf rust)”, “48” for “24”, “and” for “and then”, “5” for “6”
as §2

Structure (SMILES) | Test A disease control rating (wheat powdery mildew) [1] | Test B disease control rating (wheat leaf rust) (Puccinia recondita) | Test C disease control rating (rice blast) (Pyricularia oryzae) | Test D disease control rating (potato and tomato late blight) (Phytophthora infestans) | Test E disease control rating (gray mold) (Botrytis cinerea)
CC(NC(=O)C1CC(C)(Cl)C1)C(Oc1cc(F)ccc1F)c1ccccc1 (stereo not drawn) [compound 31] | 0 (a rating of 0 indicates no disease control (relative to the controls)) | 0 (a rating of 0 indicates no disease control (relative to the controls)) | 90# % | 0 (a rating of 0 indicates no disease control (relative to the controls)) | 0 (a rating of 0 indicates no disease control (relative to the controls))
CC(NC(=O)C1CC(C)(Cl)C1)C(Oc1cc(F)ccc1F)c1ccccc1 (stereo not drawn) [compound 32] | 59% | 0 (a rating of 0 indicates no disease control (relative to the controls)) | 52% | 0 (a rating of 0 indicates no disease control (relative to the controls)) | 0 (a rating of 0 indicates no disease control (relative to the controls))
CC(NC(=O)C1CC(C)(Cl)C1)C(Oc1cc(F)ccc1C#N)c1ccccc1 (stereo not drawn) [compound 33] | 0 (a rating of 0 indicates no disease control (relative to the controls)) | 0 (a rating of 0 indicates no disease control (relative to the controls)) | 52% | 0 (a rating of 0 indicates no disease control (relative to the controls)) | 0 (a rating of 0 indicates no disease control (relative to the controls))
CC(NC(=O)C1CC(C)(Cl)C1)C(Oc1cc(F)ccc1C#N)c1ccccc1 (stereo not drawn) [compound 34] | 59% | 0 (a rating of 0 indicates no disease control (relative to the controls)) | 52% | 45% | 0 (a rating of 0 indicates no disease control (relative to the controls))
CC(NC(=O)C1CC(C)(Cl)C1)C(Oc1ccccc1C#N)c1ccccc1 (stereo not drawn) [compound 35] | 0 (a rating of 0 indicates no disease control (relative to the controls)) | 0 (a rating of 0 indicates no disease control (relative to the controls)) | 86# % | 0 (a rating of 0 indicates no disease control (relative to the controls)) | 0 (a rating of 0 indicates no disease control (relative to the controls))
CC(NC(=O)C1CC(C)(Cl)C1)C(Oc1ccccc1C#N)c1ccccc1 (stereo not drawn) [compound 36] | 0 (a rating of 0 indicates no disease control (relative to the controls)) | 0 (a rating of 0 indicates no disease control (relative to the controls)) | 0 (a rating of 0 indicates no disease control (relative to the controls)) | 0 (a rating of 0 indicates no disease control (relative to the controls)) | 0 (a rating of 0 indicates no disease control (relative to the controls))
CC(COc1ccc(Br)cc1C#N)NC(=O)C1(C)CC(C)(Cl)C1 (stereo not drawn) [compound 37] | 0 (a rating of 0 indicates no disease control (relative to the controls)) | 25% | 0 (a rating of 0 indicates no disease control (relative to the controls)) | 23% | 8%
CC(COc1ccc(Br)cc1C#N)NC(=O)C1(C)CC(C)(Cl)C1 (stereo not drawn) [compound 38] | 0 (a rating of 0 indicates no disease control (relative to the controls)) | 66# % | 0 (a rating of 0 indicates no disease control (relative to the controls)) | 23% | 8%
CC(COc1ccc(F)cc1C#N)NC(=O)C1(C)CC(C)(Cl)C1 (stereo not drawn) [compound 39] | 0 (a rating of 0 indicates no disease control (relative to the controls)) | 25% | 97# % | 45% | 47%
CC(COc1ccc(F)cc1C#N)NC(=O)C1(C)CC(C)(Cl)C1 (stereo not drawn) [compound 40] | 0 (a rating of 0 indicates no disease control (relative to the controls)) | 0 (a rating of 0 indicates no disease control (relative to the controls)) | 0 (a rating of 0 indicates no disease control (relative to the controls)) | 62% | 0 (a rating of 0 indicates no disease control (relative to the controls))
CC(COc1ccc(Cl)cc1C#N)NC(=O)C1(C)CC(C)(Cl)C1 (stereo not drawn) [compound 41] | 0 (a rating of 0 indicates no disease control (relative to the controls)) | 0 (a rating of 0 indicates no disease control (relative to the controls)) | 0 (a rating of 0 indicates no disease control (relative to the controls)) | 85# % | 19%
CC(COc1ccc(Cl)cc1C#N)NC(=O)C1(C)CC(C)(Cl)C1 (stereo not drawn) [compound 42] | 63% | 0 (a rating of 0 indicates no disease control (relative to the controls)) | 0 (a rating of 0 indicates no disease control (relative to the controls)) | 43% | 19%
CC(COc1cc(F)ccc1C#N)NC(=O)C1(C)CC(C)(Cl)C1 (stereo not drawn) [compound 43] | 0 (a rating of 0 indicates no disease control (relative to the controls)) | 0 (a rating of 0 indicates no disease control (relative to the controls)) | 0 (a rating of 0 indicates no disease control (relative to the controls)) | 20% | 19%
CC(COc1cc(F)ccc1C#N)NC(=O)C1(C)CC(C)(Cl)C1 (stereo not drawn) [compound 44] | 0 (a rating of 0 indicates no disease control (relative to the controls)) | 0 (a rating of 0 indicates no disease control (relative to the controls)) | 94# % | 20% | 84%
CC(COc1cc(Cl)ccc1C#N)NC(=O)C1(C)CC(C)(Cl)C1 (stereo not drawn) [compound 45] | 0 (a rating of 0 indicates no disease control (relative to the controls)) | 0 (a rating of 0 indicates no disease control (relative to the controls)) | 99# % | 61% | 0 (a rating of 0 indicates no disease control (relative to the controls))
